Experimental data from a melting point compilation (Tetko et al.; mined from patent text by program, amines drawn as free bases though some values may be those of a salt).

Row | melting point [°C] | SMILES
1 | 151 to 152 | CC(=O)Nc1cc(Cl)c(O)c(Cl)c1
2 | 88 to 89 | COc1ccc(C(C)=O)c2c1CCN2C(C)=O
3 | 95 to 96 | CCOC(=O)C(CC(=O)c1ccc(Oc2ccccc2)cc1)SC(=O)c1ccccc1 (stereo unspecified)
4 | 136 to 138 | COC(=O)Oc1c(Cl)c(-c2ccc(Cl)cc2)oc(=O)c1-c1c(C)cc(C)cc1C
5 | 180 to 183 | CCSc1nc(N)c(C(N)=S)s1
6 | 224 to 226 | CCNc1nc(C)c(-c2ccnc(Nc3ccc(N4CCOCC4)c(OC)c3)n2)s1
7 | 98.5 to 98.9 | COC(=O)/C=C/Oc1ccc(Oc2ccc(F)cc2F)c(NS(C)(=O)=O)c1
8 | 120 to 122 | N#CCCCCCn1nc(-c2c(-c3ccccc3)nn3ccccc23)ccc1=O
9 | 91 to 91.5 | CC(C)(C)c1ccc(C2CCSC(c3c(F)cccc3F)=N2)cc1 (stereo unspecified)
10 | 100 to 111 | COc1ccc(C2CNCCc3c2cc(OC)c(OC)c3C)cc1 (stereo unspecified)
11 | 260 to 263 | O=c1[nH]cc(-c2ccccc2)c2ncccc12
12 | 178 to 180 | CCOC(=O)c1cn(-c2nonc2C)c2cc(F)c(F)cc2c1=O
13 | 52 to 53 | CCCCCCCCCCCCCCCNC(=O)OCCOCCOC(=O)N(Cc1ccccn1)C(=O)OCC
14 | 180 to 182 | O=C(Nc1cccnc1)N1CCN(c2cc(-c3ccc(F)cc3)ncn2)CC1
15 | 230 to 235 | CCCCC(=O)Nc1ccc(C2=N[C@H]3CCN(C)C[C@H]3c3cc(OC)c(OC)cc32)cc1 (relative stereo)
16 | 227 to 230 | CCOC(=O)c1cn([C@@H]2C[C@@H]2F)c2cc(F)ccc2c1=O
17 | 117 to 120 | CCn1ncnc1COc1nc2c(cc1C(C)(C)C)nnn2-c1ccccc1F
18 | 89 to 91 | CCCCCCCCCCCCCCCCOc1ccc(-c2nc(CC(=O)O)c(OCC)o2)cc1
19 | 186 to 188 | NC(=O)CCC(=NNC(N)=S)c1ccccc1
20 | 147 to 148 | O=C(Nc1ccc(F)cc1)c1ccccc1-c1cccc(F)c1
21 | 155 to 159 | CN(C(=O)CCNC#N)c1nnc(-c2cccnc2)s1
22 | 125 to 128 | COc1cc2ncnc(N3CCC(C4(C)CO4)CC3)c2cc1OC (stereo unspecified)
23 | 113 to 115 | COCCNc1c([N+](=O)[O-])cnc2ccccc12
24 | 124 | CCOC(=O)c1nn(-c2ccc(Cl)cc2Cl)c(-c2ccc(Cl)cc2)c1C
25 | 130 to 131 | COc1ccc2cc(-c3ccc(OCC(O)CNC(C)(C)C)cc3)n(C)c(=O)c2c1 (stereo unspecified)

Row | melting point [°C] | SMILES
26 | 290 to 295 | Cc1[nH]cnc1/C=C1\CCc2c(c3ccc(F)cc3n2C)C1=O
27 | 235 to 237 | CCn1ncc2c(NCC3CCCCC3)c3cc(OC)ccc3nc21
28 | 125 to 127 | CC1=C(C(=O)OCCO)C(c2ccccc2C(F)(F)F)C(C(=O)OCCO)=C(C)N1
29 | 79 to 80 | CC(C)(Cc1cccc2ccccc12)NC=O
30 | 248 to 250 | CCCCc1ncc(/C=C2/C(=O)NC(=O)N2C)n1Cc1ccc(C(=O)O)cc1
31 | 207 to 208 | O=C1C(c2ccccc2)=C(c2ccccc2)C(=O)N1CC(=O)N1c2ccccc2N(Cc2ccccc2)C(=O)C2CCCC21 (stereo unspecified)
32 | 315 | Oc1ccc2c(c1O)C(=Cc1ccnc3ccccc13)c1ccccc1-2
33 | 169 to 170 | COc1cc(OC)nc(CN2C(=O)C3(COc4cc5c(cc43)OCCO5)c3ccccc32)n1 (stereo unspecified)
34 | 86 to 87 | C=CCOc1cc2c(cc1Br)CC[C@H]2CCNC(=O)CC
35 | 148 to 150 | CCn1nc(-c2ncc(NCc3ccc(OC)cc3)nc2-c2ccccc2)ccc1=O
36 | 210 to 212 | O=C(CNc1ccccc1)Nc1ccc(Cl)cc1C(=O)O
37 | 160 to 161 | COc1ccc(F)cc1C1CC(=O)CC(=O)C1
38 | > 250 | CSc1nccn1-c1cccc(C2=Nc3cc(O)c(-c4ccccc4F)cc3NC(=O)C2)c1
39 | 194 to 196 | Cc1cc(Nc2cncc(NC3CCCCC3)n2)n[nH]1
40 | 65 | CCCc1nc(C)nc(Cl)c1Cc1ccc([N+](=O)[O-])cc1
41 | 35 to 38 | CCCCCCCCCCNC(=O)c1ccccc1N(CC(=O)OC)CC(=O)OC
42 | 159 to 161 | CC(=O)C(C(N)=O)=C(C)[N+](=O)[O-]
43 | 180 to 181 | CCOC(=O)c1nc(-c2c(Cl)cc(C(F)(F)F)cc2Cl)[nH]c1C#N
44 | 249 to 252 | Oc1cc2c3ccc(O)c(O)c3n(Cc3ccc(Br)cc3)c2cc1O
45 | 179 to 180 | O=[N+]([O-])c1ccc(Br)cc1-c1cc(-c2cccc(Br)c2)no1
46 | 235 | FC1=CC(c2cccnc2)=CC2CCC(=S)NC12 (stereo unspecified)
47 | 201 | CC[C@@H](O)CC(=O)N[C@H]1CC[C@H](CCN2CCC(c3cccc4c3CCO4)CC2)CC1
48 | 289 | Cc1cc(-c2ccc(C(F)(F)F)nc2)nc(-c2ccnc(-c3ccc(S(N)(=O)=O)s3)c2)n1
49 | 94 to 98 | COc1ccc(NC(=O)CBr)c([N+](=O)[O-])c1
50 | 46 to 48 | CCCCCCCCCCCCCCCC(=O)c1c(Br)cc(OC)c(OC)c1C(=O)NC[C@@H]1CCCN1CC

Row | melting point [°C] | SMILES
51 | 122 to 125 | CCC(Oc1ccc(-n2nnc3cc(C(F)(F)F)ccc32)cc1)C(=O)O (stereo unspecified)
52 | 83.8 | CCOC(=O)C(OC(=O)c1ccc(O)cc1)C(F)(F)F (stereo unspecified)
53 | 83 to 83.5 | CCCC1(CCC)Oc2c(ccc(O)c2C(C)=O)-c2ccccc21
54 | 178 to 181 | CONCc1nc2c(N)nc3ccccc3c2n1CC1(O)CCC1
55 | 94 to 96 | O=C(Oc1ccccc1C(=O)NCCO[N+](=O)[O-])c1cccnc1
56 | 197 to 199 | Clc1cc(-c2ccc3nnn(Cc4ccc5ncccc5c4)c3n2)ccn1
57 | 136 to 137 | COc1ccc(CC2C(=O)N(Cc3ccccc3)c3ccccc3NC2C)cc1 (stereo unspecified)
58 | 134 | CCSc1ccc(C(=O)O)c(C(F)(F)F)c1
59 | 116 to 118 | COc1ccc(-c2ccc(C=O)c(Cl)c2)cc1F
60 | 180 | N#CC1=C(C2=CCNCC2)Nc2n[nH]cc2C1c1cccc2nonc12 (stereo unspecified)
61 | 166 to 168 | COc1ccccc1N(CCN1CCC(C(=O)c2ccc(F)cc2)CC1)C(=O)c1ccc([N+](=O)[O-])cc1
62 | 54 to 55 | FC(F)(c1ccccc1)C(F)(F)c1ccccc1Br
63 | 105 to 107 | Cc1ccc(S(=O)(=O)n2cncn2)cc1
64 | 201 to 202 | CCc1c(C(=O)c2cc(C)cc(C)c2)n(CC=CC(=O)OC)c(=O)[nH]c1=O
65 | 109 to 110 | CN(C)C(=N)Nc1ccccc1-c1cccc(F)c1
66 | 136 to 138 | CCCOc1ccc(SC(C)(C)C)cc1C(N)=O
67 | 186 to 187 | CCCN(CCC)C1=NC2C(Br)=NN(C)C2C(O)=N1 (stereo unspecified)
68 | 117 to 119 | CC(C)P1(=O)c2ccccc2CN1c1cccc(C(F)(F)F)c1 (stereo unspecified)
69 | 212 to 215 | CCOC(=O)/C=C/c1cnc(-c2ccc(O)c(C34CC5CC(CC(C5)C3)C4)c2)cn1
70 | 213 to 214 | COc1ccc(Nc2nc(-c3ccncc3)cs2)nc1
71 | 193 to 196 | CC(=O)c1ccsc1S(N)(=O)=O
72 | 156 to 158 | CCCCCCCCC1C=CC(/C=C/c2ccc(C(=O)O)o2)=C2N=C3C(=C21)CC(C)(C)CC3(C)C (stereo unspecified)
73 | 165 to 172 | COc1cc(O)c(C(=O)c2ccccc2)cc1S(=O)(=O)Cl
74 | 81 to 82 | CCCCOc1ccc(CCCOc2nn(CC)cc2CC(=O)O)c(Oc2ccc(C(F)(F)F)cn2)c1
75 | 202 to 207 | COC(=O)c1ccc(N=Cc2ccc(Cl)c(Cl)c2)cn1

Row | melting point [°C] | SMILES
76 | 201 to 202 | Cc1ccsc1-c1ccc(C2(C)NC(=O)NC2=O)cc1 (stereo unspecified)
77 | 88 to 91 | COc1cc(N)c(C(=O)O)c(OC)c1OC
78 | 42 to 43 | CCOC(=O)C(OCOc1ccc(-c2ccc(Cl)cc2)cc1)(C(F)(F)F)C(F)(F)F
79 | 76.1 to 79.9 | CC(C(=O)NCCCCn1cnc2c(N)nc3ccccc3c21)c1ccc(-c2ccccc2)c(F)c1 (stereo unspecified)
80 | 89 to 92 | CCSc1cc(-c2ccc(Cl)cc2Cl)ccc1C#N
81 | 134 to 136 | Cc1cccc2c(N3CCSCC3)nc(Cl)cc12
82 | 214 to 216 | CN(C)C(=O)Nc1nc2ccccc2s1
83 | 212 to 213 | NC(=NC(=O)Cn1c(Cl)ccc1Cl)NC(=O)c1ccccc1
84 | 184 to 186 | COC(=O)c1ccc(Cc2ccc(O)cc2)cn1
85 | 127 | Fc1ccc(Cn2c(NC3CCN(CCNc4nccs4)C3)nc3ccccc32)cc1 (stereo unspecified)
86 | 127 to 128 | COCCOc1ccc(/C=C/COC(=O)NS(=O)(=O)NCCOC(C)C)c(Oc2ncc(C(F)(F)F)cc2Cl)c1
87 | 194 to 196 | COC(=O)Cc1c(C)c2ccc(O)cc2oc1=O
88 | 145 to 147 | COc1ccccc1Oc1cccc2c1NC(=O)C2
89 | 157 to 161 | CCOC(=O)C1=C(COCCn2c(C)nc3ccccc32)NC(C)=C(C(=O)NC(C)(C)C)C1c1ccccc1Cl (stereo unspecified)
90 | 205 | CC(=O)OC1(C(N)=O)CCCc2cc(C)cnc21 (stereo unspecified)
91 | 103 to 105 | CC(C)(C)NC(=O)[C@@H]1CCCN1C(=O)[C@@H](O)[C@H](Cc1ccccc1)NC(=O)[C@H](CC(N)=O)NC(=O)COc1ccc(NC(=O)OCc2ccccc2)cc1
92 | 70 to 72 | CCN(CC)CC(O)CNC(=O)Cn1ncc(-c2ccccc2)c1-c1ccccc1 (stereo unspecified)
93 | 131 to 134 | CCOC(=O)CCCOc1ccc([N+](=O)[O-])c(C=C2NC(=O)NC2=O)c1
94 | 79 to 81 | COc1c(C)c(C)c2c(c1C)C(CO)C(C)(C)O2 (stereo unspecified)
95 | 230 to 231 | CC(C)(C)c1cc(C(=O)NCc2ccc([N+](=O)[O-])cc2)cc(C(C)(C)C)c1O
96 | 112 to 113 | CCCCCCCCCC=CC(=O)C1C(=O)C=C(C)OC1=O (stereo unspecified)
97 | 265 to 266 | Cc1ccc2c3c(ncc2c1)CCC(=O)N3

Row | SMILES | melting point [°C]
98 | O=[N+]([O-])c1cccc(S(=O)(=O)C(CCl)Sc2ccccc2)c1 (stereo unspecified) | 126
99 | CN(C)C1CC=C(c2c[nH]c3ccc([N+](=O)[O-])cc23)CC1 (stereo unspecified) | 234 to 236
100 | CCCCn1cc(C(=O)O)c2ccc(Cl)cc21 | 149 to 151
101 | C=CCN1CC(C(=O)Nc2cc(C)nc(C)n2)CC2c3cccc4[nH]cc(c34)CC21 (stereo unspecified) | 182 to 186
